According to ChEMBL document CHEMBL5137081, “N-Heterocyclic 3-Pyridyl Carboxamide Inhibitors of DHODH for the Treatment of Acute Myelogenous Leukemia” (J Med Chem, 2022):

Columns and labels:
[1] = molecular target: T1, Dihydroorotate dehydrogenase (quinone), mitochondrial (Homo sapiens, UniProt Q02127)
Description: Binding affinity to His fused human DHODH expressed in Escherichia coli assessed as dissociation half life by surface plasmon resonance assay

[2] = molecular target: Dihydroorotate dehydrogenase (quinone), mitochondrial (Rattus norvegicus, UniProt Q63707); test: Inhibition of rat DHODH
[3] = system: MOLM-13; test: Antitumor activity against human MOLM-13 cells xenografted in NSG mouse assessed as tumor growth inhibition at 1.9 mg/kg, po qd administered for 5 days relative to control; type: functional; settings: time 5 day
[4] = system: MOLM-13; test: Antitumor activity against human MOLM-13 cells xenografted in NSG mouse assessed as tumor growth inhibition at 3.75 mg/kg, po qd administered for 5 days relative to control; type: functional; settings: time 5 day
[5] = system: MOLM-13; test: Antitumor activity against human MOLM-13 cells xenografted in NSG mouse assessed as tumor growth inhibition at 7.5 mg/kg, po qd administered for 5 days relative to control; type: functional; settings: time 5 day
[6] = Toxicity in NSG mouse xenografted with human MOLM-13 cells assessed as change in body weight at 1.5 to 7.9 mg/kg, po qd administered for 5 days; type: organism-based; settings: in vivo, 120 h, dose 1.5-7.9 mg/kg, time 5 day
[7] = Metabolic stability in dog liver microsome assessed as intrinsic clearance pretreated for 5 mins followed by NADPH addition and measured upto 60 mins by HPLC-MS/MS analysis; type: ADME, Canis lupus familiaris; settings: liver microsomes, time < 65 min, read-out: CLH
[8] = system: MOLM-13; test: Antiproliferative activity against human MOLM-13 cells incubated for 72 hrs by CellTiter-Glo assay; type: functional, cell-based; settings: MOLM-13, 72 h
[9] = Plasma protein binding in human assessed as free fraction at 1 uM by equilibrium dialysis based LC-MS/MS analysis; type: ADME, cell-free
[10] = molecular target: Cytochrome P450 2C19 (Homo sapiens, UniProt P33261); test: Inhibition of CYP2C19 in human liver microsomes incubated for 10 mins by LC-MS/MS analysis; type: ADME, Microsome
[11] = Intrinsic clearance in dog hepatocytes measured per 10^6 cells; type: ADME, cell-based, Canis lupus familiaris, Hepatocyte
[12] = Tmax in Sprague-Dawley rat at 10 mg/kg, po or 2 mg/kg, iv measured upto 24 hrs by LC-MS/MS analysis; type: ADME, organism-based; settings: in vivo
[13] = Plasma protein binding in rat assessed as free fraction at 1 uM by equilibrium dialysis based LC-MS/MS analysis; type: ADME, cell-free
[14] = Oral bioavailability in Sprague-Dawley rat at 10 mg/kg measured upto 24 hrs by LC-MS/MS analysis; type: ADME, organism-based; settings: in vivo
[15] = Stability in human hepatocytes assessed as intrinsic clearance measured per 10^6 cells incubated upto 120 mins by LC-MS/MS analysis; type: ADME, cell-based, Hepatocyte; settings: 2 h
[16] = system: MDR1; test: Efflux ratio of apparent permeability across basolateral to apical side over apical to basolateral side in dog MDCK-MDR1 cells; type: ADME, cell-based, Canis lupus familiaris
[17] = molecular target: T1, Dihydroorotate dehydrogenase (quinone), mitochondrial; test: Binding affinity to His fused human DHODH expressed in Escherichia coli by surface plasmon resonance assay
[18] = Metabolic stability in human liver microsome assessed as intrinsic clearance pretreated for 5 mins followed by NADPH addition and measured upto 60 mins by HPLC-MS/MS analysis; type: ADME; settings: microsomes, 1.083 h, time < 65 min
[19] = Intrinsic clearance in monkey hepatocytes measured per 10^6 cells; type: ADME, cell-based, Macaca mulatta, Hepatocyte; settings: rhesus monkey
[20] = Toxicity in NSG mouse xenografted with human MOLM-13 cells assessed as change in body weight at 10 to 20 mg/kg, po qd administered for 5 days; type: organism-based; settings: in vivo, 120 h, dose 10-20 mg/kg, time 5 day
[21] = system: MOLM-13; test: Antitumor activity against human MOLM-13 cells xenografted in NSG mouse assessed as tumor growth inhibition at 10 mg/kg, po qd administered for 5 days relative to control; type: functional; settings: MOLM-13, 120 h, time 5 day, read-out: TGI
[22] = system: MOLM-13; test: Antitumor activity against human MOLM-13 cells xenografted in NSG mouse assessed as tumor growth inhibition at 20 mg/kg, po qd administered for 5 days relative to control; type: functional; settings: MOLM-13, 120 h, time 5 day, read-out: TGI

T1 sequence (Q02127 whole entry): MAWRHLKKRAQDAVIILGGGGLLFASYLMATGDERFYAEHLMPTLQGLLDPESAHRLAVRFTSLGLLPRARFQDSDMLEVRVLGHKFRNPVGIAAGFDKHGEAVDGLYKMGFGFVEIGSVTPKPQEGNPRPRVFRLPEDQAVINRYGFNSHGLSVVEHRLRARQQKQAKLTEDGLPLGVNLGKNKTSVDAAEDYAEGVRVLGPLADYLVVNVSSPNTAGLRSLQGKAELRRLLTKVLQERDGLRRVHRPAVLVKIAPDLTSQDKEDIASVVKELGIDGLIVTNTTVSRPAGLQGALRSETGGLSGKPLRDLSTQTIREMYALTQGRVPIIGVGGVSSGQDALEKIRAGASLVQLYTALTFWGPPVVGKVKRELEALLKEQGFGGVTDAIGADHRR
Cytochrome P450 2C19, sequence (P33261 whole entry): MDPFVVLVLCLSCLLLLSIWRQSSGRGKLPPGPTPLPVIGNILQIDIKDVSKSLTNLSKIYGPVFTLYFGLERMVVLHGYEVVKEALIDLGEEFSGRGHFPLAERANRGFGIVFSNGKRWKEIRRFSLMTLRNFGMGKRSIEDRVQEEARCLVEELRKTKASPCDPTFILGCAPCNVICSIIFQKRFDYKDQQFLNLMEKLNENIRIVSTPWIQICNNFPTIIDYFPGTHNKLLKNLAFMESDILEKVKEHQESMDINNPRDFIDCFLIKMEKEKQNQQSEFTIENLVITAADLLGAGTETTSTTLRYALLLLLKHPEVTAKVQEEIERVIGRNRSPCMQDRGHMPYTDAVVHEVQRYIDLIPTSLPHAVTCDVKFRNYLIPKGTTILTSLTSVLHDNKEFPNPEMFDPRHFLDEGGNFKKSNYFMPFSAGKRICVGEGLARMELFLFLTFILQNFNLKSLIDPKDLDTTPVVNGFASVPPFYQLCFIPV
Dihydroorotate dehydrogenase (quinone), mitochondrial (Rattus norvegicus, UniProt Q63707), sequence (Q63707 whole entry): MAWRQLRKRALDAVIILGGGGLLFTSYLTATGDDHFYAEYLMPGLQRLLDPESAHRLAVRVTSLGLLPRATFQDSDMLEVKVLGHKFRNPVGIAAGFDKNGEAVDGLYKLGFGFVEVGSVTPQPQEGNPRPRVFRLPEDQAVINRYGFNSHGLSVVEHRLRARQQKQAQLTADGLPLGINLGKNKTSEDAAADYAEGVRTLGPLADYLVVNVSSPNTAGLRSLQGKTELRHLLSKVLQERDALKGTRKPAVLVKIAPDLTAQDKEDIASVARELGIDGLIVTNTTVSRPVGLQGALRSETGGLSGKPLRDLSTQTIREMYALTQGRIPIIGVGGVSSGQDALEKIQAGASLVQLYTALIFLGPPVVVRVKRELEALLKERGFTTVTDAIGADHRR

Which results are given for `CCn1c(CO)nn(-c2nc(O[C@@H](C)C(F)(F)F)c(C(=O)Nc3c(C)cnc(OC)c3Cl)cc2F)c1=O`?
T1/2 [1]: 0.65 h; IC50 [2]: 130 nM; TGI [3]: 71%; TGI [4]: 76%; TGI [5]: 79%; Activity [6]: Non-Toxic; CLint scaled [7]: 86 mL/min/kg; IC50 [8]: 0.4 nM; fraction unbound at 1 µM [9]: 0.063; IC50 [10]: > 10000 nM; CLH [11]: 86 µL/min/1e6 cells; Tmax [12]: 4 h; fraction unbound at 1 µM [13]: 0.078; bioavailability ([14]; Sprague-Dawley): 106%; CLH [15]: 2.3 µL/min/1e6 cells; efflux ratio [16]: > 30; Kd [17]: 1.1 nM; CLH [18]: < 7.7 µL/min/mg; CLH [19]: 5.3 µL/min/1e6 cells

What does the source list for `CCn1c(CO)nn(-c2nc(O[C@@H](C)C(F)(F)F)c(C(=O)Nc3c(C)ccnc3Cl)cc2F)c1=O`?
T1/2 [1]: 0.5 h; IC50 [2]: 1580 nM; Activity [20]: Non-Toxic; inhibition in vivo at 10 mg/kg [21]: 44%; CLint scaled [7]: 8.3 mL/min/kg; IC50 [8]: 2 nM; fraction unbound at 1 µM [9]: 0.38; IC50 [10]: > 10000 nM; inhibition in vivo at 20 mg/kg [22]: 60%; CLH [11]: 8.3 µL/min/1e6 cells; Tmax [12]: 1.7 h; fraction unbound at 1 µM [13]: 0.28; F ([14]; po, 10 mg/kg, 24 h): 167%; CLH [15]: < 1.9 µL/min/1e6 cells; Kd [17]: 3.3 nM; CLH [18]: 8 µL/min/mg; CLH [19]: 4 µL/min/1e6 cells
